Experimental data published in patent US7109243B2 (IRM LLC, priority 2003, dated 2006).

Legend:
Cathepsin S = Cathepsin S (Homo sapiens, UniProt P25774); assay: Cathepsin S inhibition assay (fluorogenic peptide substrate); type: biochemical; details: Table II, compounds of Formula I; read-out: Ki Cat. S
Procedure: “Inhibition constant”, Ki, is the dissociation constant of the enzyme-inhibitor complex, or the reciprocal of the binding affinity of the inhibitor to the enzyme. […] The inhibited rates are then fit by nonlinear regression to the following equation: […]
The assumption being made for the classical inhibition described above is that the free inhibitor concentration is equal to the total inhibitor concentration.
Kinetic measurements are performed in a total reaction volume of 30 μl in 384-well microtiter plates. […] The reactions are initiated by adding the substrate, acetyl-histidine-proline-valine-lysine-amino carbamoyl coumarin, to a final concentration of 50 μM. The rate of substrate hydrolysis is measured by monitoring the increase in fluorescence at an excitation wavelength of 380 nm and an emission wavelength of 450 nm that results from cleavage of the aniline bond in the substrate by the enzyme.

Cathepsin K = target: T1, Cathepsin K (Homo sapiens, UniProt P43235); assay: Cathepsin K inhibition assay (fluorogenic peptide substrate); selectivity ratio vs cathepsin S; type: biochemical; details: ratio of cathepsin K inhibition constant to cathepsin S inhibition constant; Table II
T1 sequence (P43235 115-329): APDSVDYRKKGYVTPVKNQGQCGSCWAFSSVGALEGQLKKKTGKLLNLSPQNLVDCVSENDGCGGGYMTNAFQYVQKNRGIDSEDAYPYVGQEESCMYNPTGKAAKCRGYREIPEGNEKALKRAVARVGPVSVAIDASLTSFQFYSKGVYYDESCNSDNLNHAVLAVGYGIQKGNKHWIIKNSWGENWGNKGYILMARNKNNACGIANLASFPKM
Procedure: The optimal substrate for cathepsin K, acetyl-lysine-histidine-proline-lysine-amino carbamoyl coumarin, was identified from screening a combinatorial library of fluorogenic peptide substrates (Harris, J. L., B. J. Backes, et al., Proc Natl Acad Sci USA 2000, 97(14), 7754-9). Kinetic measurements are performed in a total reaction volume of 30 μl in 384-well microtiter plates. […] The reactions are initiated by adding the substrate, acetyl-lysine-histidine-proline-lysine-amino carbamoyl coumarin, to a final concentration of 40 μM. The rate of substrate hydrolysis is measured by monitoring the increase in fluorescence at an excitation wavelength of 380 nm and an emission wavelength of 450 nm that results from cleavage of the aniline bond in the substrate by the enzyme. The apparent inhibition constants for the compounds are determined from the enzyme progress curves ([…]. Elrod, et al., Anal Biochem 2000, 286(1), 45-50) and are then used to calculate the inhibition constants for competitive inhibitors. Selectivity for cathepsin S in the presence of cathepsin isozymes was determined by the ratio of the cathepsin isozyme inhibition constant of a compound of the present invention to the cathepsin S inhibition constant of the same compound.

Sequence of Cathepsin S (P25774 115-331, species assumed): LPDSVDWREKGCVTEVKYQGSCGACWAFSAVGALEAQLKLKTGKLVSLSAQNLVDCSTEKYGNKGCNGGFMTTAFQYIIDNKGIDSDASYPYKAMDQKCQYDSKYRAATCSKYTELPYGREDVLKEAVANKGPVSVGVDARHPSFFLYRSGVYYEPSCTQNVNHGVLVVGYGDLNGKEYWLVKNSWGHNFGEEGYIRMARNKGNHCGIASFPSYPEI

Row | Ki (Cathepsin S) | Selectivity for Cat. S over Cat. K (Cathepsin K) | Structure (SMILES)
1 | < 100 nM | + (+, >10) | COc1ccc(NCCNC(=O)[C@H](Cc2ccccc2)NC(=O)c2cc(C)c(OC)c(C)c2)cc1 [Compound 21, (S)-4-Methoxy-N-{1-[2-(4-methoxy-phenylamino)-ethylcarbamoyl]-2-phenyl-ethyl}-3,5-dimethyl-benzamide]
2 | < 1000 nM | + (+, >10) | COc1ccc2[nH]c(C(=O)N[C@@H](CC3CCCCC3)C(=O)NCCNc3ccc(OC(F)(F)F)cc3)cc2c1 [Compound 22, 5-Methoxy-1H-indole-2-carboxylic acid (S)-{2-cyclohexyl-1-[2-(4-trifluoromethoxy-phenylamino)-ethylcarbamoyl]-ethyl}-amide]
3 | < 100 nM | ++ (++, >100) | O=C(N[C@@H](CC1CCCCC1)C(=O)NCCNc1ccc(OC(F)(F)F)cc1)c1ccoc1 [Compound 26]
4 | < 100 nM | +++ (+++, >1000) | Cc1nc(-c2ccc(C(=O)N[C@@H](CC3CCCCC3)C(=O)NCCNc3ccc(OC(F)(F)F)cc3)cc2)no1 [Compound 27]
5 | < 1000 nM | + (+, >10) | Cc1nc(-c2ccc(C(=O)N[C@@H](CC3CCCCC3)C(=O)NCCNc3ccc(OC(F)(F)F)cc3)cc2)no1 [Compound 28]
6 | < 100 nM | + (+, >10) | COc1ccc(NCCNC(=O)[C@H](Cc2ccccc2)NC(=O)c2cc(C)c(C)cc2C)cc1 [Compound 30, (S)-N-{1-[2-(4-Methoxy-phenylamino)-ethylcarbamoyl]-2-phenyl-ethyl}-2,4,5-trimethyl-benzamide]
7 | < 100 nM | + (+, >10) | O=C(N[C@@H](CC1CCCCC1)C(=O)NCCNc1ccc(OC(F)(F)F)cc1)c1ccc(-c2cccc(F)c2)o1 [Compound 31, 5-(3-Fluoro-phenyl)-furan-2-carboxylic acid (S)-{2-cyclohexyl-1-[2-(4-trifluoromethoxy-phenylamino)-ethylcarbamoyl]-ethyl}-amide]
8 | < 100 nM | + (+, >10) | O=C(N[C@@H](CC1CCCCC1)C(=O)NCCNc1ccc(OC(F)(F)F)cc1)C1CN(Cc2ccccc2)CCO1 (stereo partly drawn) [Compound 32, 4-Benzyl-morpholine-2-carboxylic acid (S)-{2-cyclohexyl-1-[2-(4-trifluoromethoxy-phenylamino)-ethylcarbamoyl]-ethyl}-amide]
9 | < 10000 nM | + (+, >10) | COc1ccc(NCCNC(=O)[C@H](Cc2ccc(Oc3ccc(N(C)C)cc3)cc2)NC(=O)c2cccc(C)c2)cc1 [Compound 33, (S)-N-{2-[4-(4-Dimethylamino-phenoxy)-phenyl]-1-[2-(4-methoxy-phenylamino)-ethylcarbamoyl]-ethyl}-3-methyl-benzamide]
10 | < 100 nM | +++ (+++, >1000) | O=C(N[C@@H](CC1CCCCC1)C(=O)NCCNc1ccc(OC(F)(F)F)cc1)c1cccc(-c2ccccc2Cl)c1 [Compound 34, 2′-Chloro-biphenyl-3-carboxylic acid (S)-{2-cyclohexyl-1-[2-(4-trifluoromethoxy-phenylamino)-ethylcarbamoyl]-ethyl}-amide]
11 | < 100 nM | + (+, >10) | O=C(N[C@@H](CC1CCCCC1)C(=O)NCCNc1ccc(OC(F)(F)F)cc1)c1ccc(-c2ccccc2C(F)(F)F)s1 [Compound 35, 5-(2-Trifluoromethyl-phenyl)-thiophene-2-carboxylic acid (S)-{2-cyclohexyl-1-[2-(4-trifluoromethoxy-phenylamino)-ethylcarbamoyl]-ethyl}-amide]
12 | < 100 nM | ++ (++, >100) | O=C(N[C@@H](CC1CCCCC1)C(=O)NCCNc1ccc(OC(F)(F)F)cc1)c1ccc(-c2cccc(F)c2)s1 [Compound 36, 5-(3-Fluoro-phenyl)-thiophene-2-carboxylic acid (S)-{2-cyclohexyl-1-[2-(4-trifluoromethoxy-phenylamino)-ethylcarbamoyl]-ethyl}-amide]
13 | < 100 nM | ++ (++, >100) | O=C(N[C@@H](CC1CCCCC1)C(=O)NCCNc1ccc(OC(F)(F)F)cc1)c1ccsc1 [Compound 37, Thiophene-3-carboxylic acid (S)-{2-cyclohexyl-1-[2-(4-trifluoromethoxy-phenylamino)-ethylcarbamoyl]-ethyl}-amide]
14 | < 100 nM | ++ (++, >100) | O=C(N[C@@H](CC1CCCCC1)C(=O)NCCNc1ccc(OC(F)(F)F)cc1)C1CC(=O)N(Cc2cccs2)C1 (stereo partly drawn) [Compound 38, 5-Oxo-1-thiophen-2-ylmethyl-pyrrolidine-3-carboxylic acid (S)-{2-cyclohexyl-1-[2-(4-trifluoromethoxy-phenylamino)-ethylcarbamoyl]-ethyl}-amide]
15 | < 1000 nM | ++ (++, >100) | O=C(N[C@@H](CC1CCCCC1)C(=O)NCCNc1ccc(OC(F)(F)F)cc1)C1CC(=O)N(Cc2ccco2)C1 (stereo partly drawn) [Compound 39, 1-Furan-2-ylmethyl-5-oxo-pyrrolidine-3-carboxylic acid (S)-{2-cyclohexyl-1-[2-(4-trifluoromethoxy-phenylamino)-ethylcarbamoyl]-ethyl}-amide]
16 | < 1000 nM | + (+, >10) | Cc1oc(S(=O)(=O)N2CCCC2)cc1C(=O)N[C@@H](CC1CCCCC1)C(=O)NCCNc1ccc(OC(F)(F)F)cc1 [Compound 40, 2-Methyl-5-(pyrrolidine-1-sulfonyl)-furan-3-carboxylic acid (S)-{2-cyclohexyl-1-[2-(4-trifluoromethoxy-phenylamino)-ethylcarbamoyl]-ethyl}-amide]
17 | < 1000 nM | ++ (++, >100) | COc1ccc(NCCNC(=O)[C@H](Cc2ccccc2)NC(=O)c2cnn(-c3ccccc3)c2C(F)(F)F)cc1 [Compound 41, (S)-1-Phenyl-5-trifluoromethyl-1H-pyrazole-4-carboxylic acid {1-[2-(4-methoxy-phenylamino)-ethylcarbamoyl]-2-phenyl-ethyl}-amide]
18 | < 1000 nM | + (+, >10) | Cc1ccc(-c2ccc(C(=O)N[C@@H](CC3CCCCC3)C(=O)NCCNc3ccc(OC(F)(F)F)cc3)s2)cc1 [Compound 42, 5-p-Tolyl-thiophene-2-carboxylic acid (S)-{2-cyclohexyl-1-[2-(4-trifluoromethoxy-phenylamino)-ethylcarbamoyl]-ethyl}-amide]
19 | < 100 nM | + (+, >10) | O=C(N[C@@H](CC1CCCCC1)C(=O)NCCNc1ccc(OC(F)(F)F)cc1)c1ccc(Cn2cnc3ccccc32)cc1 [Compound 43, 4-Benzoimidazol-1-ylmethyl-N-{2-cyclohexyl-1-(S)-[2-(4-trifluoromethoxy-phenylamino)-ethylcarbamoyl]-ethyl}-benzamide]
20 | < 1000 nM | ++ (++, >100) | COc1ccc(NCCNC(=O)[C@H](Cc2ccccc2)NC(=O)c2cnn(-c3ccc(Cl)cc3)c2C(F)(F)F)cc1 [Compound 44, (S)-1-(4-Chloro-phenyl)-5-trifluoromethyl-1H-pyrazole-4-carboxylic acid {1-[2-(4-methoxy-phenylamino)-ethylcarbamoyl]-2-phenyl-ethyl}-amide]
21 | < 100 nM | +++ (+++, >1000) | COc1ccc(NCCNC(=O)[C@H](Cc2ccc(Oc3ccc(C)cc3)cc2)NC(=O)c2cccc(C)c2)cc1 [Compound 45, (S)-N-[1-[2-(4-Methoxy-phenylamino)-ethylcarbamoyl]-2-(4-p-tolyloxy-phenyl)-ethyl]-3-methyl-benzamide]
22 | < 1000 nM | ++ (++, >100) | O=C(Cn1cnnn1)N[C@@H](CC1CCCCC1)C(=O)NCCNc1ccc(OC(F)(F)F)cc1 [Compound 46, 3-Cyclohexyl-2-(S)-(2-tetrazol-1-yl-acetylamino)-N-[2-(4-trifluoromethoxy-phenylamino)-ethyl]-propionamide]
23 | < 100 nM | +++ (+++, >1000) | Cc1cccc(-c2ccc(C(=O)N[C@@H](CC3CCCCC3)C(=O)NCCNc3ccc(OC(F)(F)F)cc3)s2)c1 [Compound 47, 5-m-Tolyl-thiophene-2-carboxylic acid (S)-{2-cyclohexyl-1-[2-(4-trifluoromethoxy-phenylamino)-ethylcarbamoyl]-ethyl}-amide]
